Experimental data as given in patent publication US8586573B2, “N-(Aminoheteroaryl)-1H-indole-2-carboxamide derivatives, and preparation and therapeutic application thereof” (Sanofi, priority 2006, dated 2013).

Assays:
TRPV1 receptors = target: T1, TRPV1 receptors (Mus musculus, UniProt Q704Y3); assay: Mouse corneal irritation test (capsaicin-induced eye rubbing); format: in vivo; conditions: compound 500 μM, 2 μl local application to cornea 10 min before capsaicin 160 μM; eye rubs counted over 2 min
T1 construct: from tissue; host or cells: cornea of the living mouse (in vivo)
T1 sequence (Q704Y3 whole entry): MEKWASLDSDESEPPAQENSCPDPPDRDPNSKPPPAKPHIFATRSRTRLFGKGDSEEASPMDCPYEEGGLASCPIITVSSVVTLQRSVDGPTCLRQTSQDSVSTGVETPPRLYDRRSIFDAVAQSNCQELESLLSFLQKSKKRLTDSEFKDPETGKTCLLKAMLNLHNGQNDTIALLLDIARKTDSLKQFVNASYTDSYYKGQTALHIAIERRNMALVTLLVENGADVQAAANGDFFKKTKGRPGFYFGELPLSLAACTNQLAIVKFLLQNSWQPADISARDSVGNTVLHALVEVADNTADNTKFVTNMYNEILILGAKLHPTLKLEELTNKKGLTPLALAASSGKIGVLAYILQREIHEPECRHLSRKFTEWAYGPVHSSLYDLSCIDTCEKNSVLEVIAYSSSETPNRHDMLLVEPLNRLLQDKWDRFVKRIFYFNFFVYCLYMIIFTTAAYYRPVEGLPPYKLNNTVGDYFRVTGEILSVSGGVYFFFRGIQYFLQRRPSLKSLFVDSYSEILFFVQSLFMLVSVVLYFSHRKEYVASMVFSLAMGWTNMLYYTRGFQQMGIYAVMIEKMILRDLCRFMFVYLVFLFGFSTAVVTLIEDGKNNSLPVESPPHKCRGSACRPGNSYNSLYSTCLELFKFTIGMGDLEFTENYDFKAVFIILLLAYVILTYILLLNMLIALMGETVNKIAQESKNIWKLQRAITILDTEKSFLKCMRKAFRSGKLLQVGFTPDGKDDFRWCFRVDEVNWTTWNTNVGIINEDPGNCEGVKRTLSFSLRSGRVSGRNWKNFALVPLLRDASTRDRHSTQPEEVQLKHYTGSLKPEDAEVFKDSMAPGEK
Experimental: Mouse Corneal Irritation Test
The irritant nature of capsaicin can be readily assessed at the level of the cornea since this organ is one of the most innervated by C fibres. In this context, according to preliminary experiments, the application of a very small amount of capsaicin (2 μl at a concentration of 160 μM) to the surface of the cornea of an animal results in a certain number of stereotyped behaviors associated with the irritation and that can be readily listed. Among these are: blinking of the eye, rubbing of the instilled eye with the ipsilateral forelimb, rubbing of the face with both forelimbs, scratching of the ipsilateral face with the hind limb. […]
In practice, the product to be tested, prepared at 25 mM in DMSO and diluted for its final use in physiological serum with 10% Tween 80, at the highest concentration of 500 μM, is administered by local application to the surface of the cornea in a volume of 2 μl, 10 minutes before the application of the capsaicin. […] Over the course of a period of observation of 2 minutes following the instillation, the number of times the instilled eye is rubbed by the ipsilateral forelimb is counted for each animal. For each given group, the percentage protection is calculated as follows: P=100−((average number of scratches of the group treated with the compound/average number of scratches of the group treated with the solvent)×100) […]

TRPV1 receptor = target: T2, TRPV1 receptor (Rattus norvegicus, UniProt O35433); assay: Inhibition of the current induced by capsaicin on rat DRGs (whole-cell patch-clamp); format: cell-based; conditions: DRG neuron, inhibition of control capsaicin (1 microM) response, newborn rat DRG neurons; for inhibition at 0.001 µM: compound at 1 nM; for inhibition at 0.01 µM: compound at 10 nM
T2 construct: The neurons of the DRG naturally express the TRPV1 receptor; endogenous in cells; host or cells: primary culture of newborn rat dorsal root ganglion neurons
T2 sequence (O35433 whole entry): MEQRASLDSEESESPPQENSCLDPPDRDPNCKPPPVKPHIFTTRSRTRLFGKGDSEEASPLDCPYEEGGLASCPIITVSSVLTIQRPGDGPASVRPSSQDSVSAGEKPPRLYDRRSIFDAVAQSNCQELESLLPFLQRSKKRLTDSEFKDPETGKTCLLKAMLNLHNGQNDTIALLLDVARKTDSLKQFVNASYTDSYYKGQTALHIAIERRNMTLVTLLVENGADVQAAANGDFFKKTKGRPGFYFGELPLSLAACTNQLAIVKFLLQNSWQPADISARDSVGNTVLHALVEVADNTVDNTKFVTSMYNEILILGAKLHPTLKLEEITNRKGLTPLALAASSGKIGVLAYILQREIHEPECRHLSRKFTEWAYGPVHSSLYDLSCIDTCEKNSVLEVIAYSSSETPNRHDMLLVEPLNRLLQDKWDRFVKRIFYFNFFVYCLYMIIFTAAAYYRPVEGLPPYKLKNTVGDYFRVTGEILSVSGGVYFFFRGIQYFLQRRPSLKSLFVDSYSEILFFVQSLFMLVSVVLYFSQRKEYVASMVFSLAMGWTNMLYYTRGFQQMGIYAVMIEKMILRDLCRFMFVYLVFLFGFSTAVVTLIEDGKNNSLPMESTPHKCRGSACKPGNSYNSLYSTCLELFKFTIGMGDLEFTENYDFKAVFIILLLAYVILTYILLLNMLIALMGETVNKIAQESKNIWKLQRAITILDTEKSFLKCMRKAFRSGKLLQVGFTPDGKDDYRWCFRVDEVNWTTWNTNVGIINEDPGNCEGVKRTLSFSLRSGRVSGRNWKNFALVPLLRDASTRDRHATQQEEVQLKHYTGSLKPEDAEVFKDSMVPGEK
Experimental: Test for Inhibition of the Current Induced by Capsaicin on Rat DRGs
• Primary culture of rat dorsal root ganglion (DRG) cells:
The neurons of the DRG naturally express the TRPV1 receptor.
Newborn rat DRG primary cultures are prepared from one-day-old rat pups. Briefly, after dissection, the ganglia are trypsinized and the cells are mechanically dissociated by controlled trituration. The cells are resuspended in an Eagle's basal culture medium containing 10% of foetal calf serum, 25 mM KCl, 2 mM glutamine, 100 μg/ml gentamycin and 50 ng/ml of NGF, and then deposited onto laminin-coated glass cover slips (0.25×10^6 cells per cover slip) which are then placed in 12-well Corning dishes. The cells are incubated at 37° C. in a humidified atmosphere containing 5% CO2 and 95% air. Cytosine β-D-arabinoside (1 μM) is added 48 h after placing in culture, in order to prevent the development of non-neuronal cells. The cover slips are transferred into the experimental chambers for the patch-clamp studies after 7-10 days of culture. • Electrophysiology:
The measuring chambers (volume 800 μl) containing the cell preparation are placed on the platform of an inverted microscope (Olympus IMT2) equipped with Hoffman optics (Modulation Contrast, New York) and observed at the magnification of ×400. The chambers are continually perfused by gravity (2.5 ml/min) by means of a solution distributing device with 8 inlets, and the sole outlet of which, consisting of a polyethylene tube (500 μm aperture), is placed at least 3 mm from the cell studied. The “whole cell” configuration of the patch-clamp technique was used. The borosilicate glass pipettes (resistance 5-10 MOhms) are moved close to the cell by means of a 3D piezoelectric micromanipulator (Burleigh, PC1000). The overall currents (membrane potential fixed at −60 mV) are recorded with an Axopatch 1D amplifier (Axon Instruments, Foster city, Calif.), connected to a PC control by Pclamp8 software (Axon Instrument). The current traces are recorded on paper and simultaneously digitized (sampling frequency […]) and acquired on the hard drive of the PC.
The application of a micromolar solution of capsaicin causes, on the DRG cells (voltage fixed at −70 mV), an inward cationic current. In order to minimize the desensitization of the receptors, a minimum period of one minute is observed between two applications of capsaicin. After a controlled period (stabilization of the capsaicin response alone), the compounds to be tested are applied alone at a given concentration (concentration of 10 nM or of […]) for a period of 4 to 5 minutes, during which several capsaicin+compound tests are carried out (obtaining of maximum inhibition). The results are expressed as % inhibition of the control capsaicin response.

SMILES | % P 500 μM (percentage protection) (TRPV1 receptors) | melting point | inhibition at 0.001 µM (TRPV1 receptor) | inhibition at 0.01 µM (TRPV1 receptor)
O=C(Nc1ccc(N2CCCC2)nc1)c1cc2cc(F)ccc2n1Cc1cccc(F)c1 [Compound 2, N-[6-(pyrrolidin-1-yl)pyridin-3-yl]-5-fluoro-1-(3-fluorobenzyl)-1H-indole-2-carboxamide] | 72% | 199 to 201 °C | 46% | –
O=C(Nc1ccc(N2CCC2)nc1)c1cc2cc(F)ccc2n1Cc1cccc(F)c1 [Compound 4, N-[6-(azetidin-1-yl)pyridin-3-yl]-5-fluoro-1-(3-fluorobenzyl)-1H-indole-2-carboxamide] | – | – | 89% | –
O=C(Nc1ccc(N2CCC(O)C2)nc1)c1cc2cc(F)ccc2n1Cc1cccc(F)c1 (stereo not shown) [Compound 7, N-[6-(3-hydroxypyrrolidin-1-yl)pyridin-3-yl]-5-fluoro-1-(3-fluorobenzyl)-1H-indole-2-carboxamide] | – | – | – | 85%
O=C(Nc1cnc(N2CCCC2)nc1)c1cc2cc(F)ccc2n1Cc1cccc(F)c1 [Compound 21, N-[2-(pyrrolidin-1-yl)pyrimidin-5-yl]-5-fluoro-1-(3-fluorobenzyl)-1H-indole-2-carboxamide] | – | 220 to 222 °C | – | 79%
